{"source": "patent EP0717995A2", "about": "“Cell degeneration suppressing and organ toxicity reducing agent” (SANWA KAGAKU KENKYUSHO CO., LTD., priority 1994, dated 1996)", "assay_type_in_all_cases": "in vivo", "key": {"rats of 10 months of age": {"tested_on": "rats of 10 months of age", "experimental": "Using rats of 10 months of age (8 to 9 animals per 1 group), 0.5 g/kg of carbon tetrachloride was orally administered as a hepatic toxicity substance to increase the serum GOT level to 500 KARMEN units or more after 24 hours of the administration, simultaneously carrying out oral administration of (1) indomethacin (5 mg/kg) or (2) tetracycline (10 mg/kg) as a pharmaceutical drug having hepatic toxicity, 3 times on every other day.\nIn the inventive substance-treated group, the sulfatide composition described in Composition Production Example (2 mg/kg as sulfatide) was orally administered simultaneously with the pharmaceutical drug having hepatic toxicity.\nThe GOT enzyme released in blood caused by hepatocyte destruction was measured 12 hours after completion of the drug administration, and the liver was extracted to carry out histological tissue examination."}, "[1]": {"tested_on": "spontaneous nephritis in MRL/1 mice", "assay": "Preventive action against spontaneous nephritis in MRL/1 mice (urinary protein, blood urea nitrogen)", "details": "male MRL/1 mice, positive (urinary protein 100 mg/dl or more) / survived animals", "experimental": "Protective effect of the pharmaceutical preparation of the present invention against spontaneous nephritis in MRL/1 mice was examined (protective effect on functional reduction due to aging).\nEach test sample of 1 to 10 mg/kg mixed with feed was orally administered to male MRL/1 mice of 6 weeks of age (15 animals per 1 group) twice a week for 12 weeks. During the administration period, urinary protein was measured once a week to examine positive ratio in each week of age by defining an individual showing a urinary protein level of 100 mg/dl or more as positive. Also, blood urea nitrogen was measured on the next day of the final administration to carry out serologic biochemical evaluation of the action of the compound of the present invention against nephritis, together with histopathological evaluation."}, "[2]": {"tested_on": "mouse hepatitis virus (MHV)", "assay": "Interferon enhancer effect in mice infected with mouse hepatitis virus (survival)", "details": "ICR mice, MHV Friend strain 2 LD50 i.p.; oral sulfatide used simultaneously with IFN-α i.p., once a day for 3 days", "experimental": "Synergetic effect of the simultaneous use of interferon-α (IFN-α) and the substance of the present invention, sulfatide, on mice infected with mouse hepatitis virus (MHV)\nA total of 10 ICR mice were used in one group, and intraperitoneal administration of mouse IFN-α and oral administration of […] were carried out once a day for 3 days. Just before the administration on the second day, MHV Friend strain was inoculated into the abdominal cavity in a 2 LD₅₀ equivalent dose, and conditions of the animals were observed until 14 days thereafter to calculate survival ratio."}, "[3]": {"tested_on": "herpes simplex type 1 virus (HSV-1)", "assay": "Interferon enhancer effect in mice infected with herpes simplex type 1 virus (survival)", "details": "BALB/c mice, HSV-1 MIYAMA strain 10 LD50; oral sulfatide for 5 days together with 4 × 10⁴ IU/kg IFN-α i.p.", "experimental": "Synergetic effect of the simultaneous use of IFN-α and sulfatide on mice infected with herpes simplex type 1 virus (HSV-1)\nA total of 10 BALB/c mice were used in one group and infected with a 10 LD₅₀ equivalent dose of HSV-1 MIYAMA strain. Intraperitoneal administration of IFN-α was carried out on the day before the inoculation of HSV-1 and just after the inoculation, and oral administration of sulfatide was carried out continuously for 5 days starting on the day before the HSV-1 inoculation until the fourth day after the inoculation. Conditions of the animals were observed until 20 days after the HSV-1 infection to calculate survival rate."}, "[4]": {"details": "dose 1 mg/kg oral in feed twice a week from 6 weeks of age"}, "[5]": {"details": "dose 2 mg/kg oral in feed twice a week from 6 weeks of age"}}, "note": "Like-named read-outs stand apart in the source and are kept apart here.", "data": [{"compound": "COc1ccc2c(c1)c(CC(=O)O)c(C)n2C(=O)c1ccc(Cl)cc1", "note": "[indomethacin, reference compound]", "values": [{"measurement": "Changes in GOT, 12 hrs after Completion of Drug Administration", "setting": "rats of 10 months of age; group a): carbon tetrachloride + indomethacin (5 mg/kg oral, 3 times on every other day), no sulfatide", "result": "1054 ± 31.2", "unit": "KARMEN units"}]}, {"compound": "sialyl Lewis A", "values": [{"measurement": "Changes in positive urinary protein, Weeks of Age 16", "setting": "[1]; [4]", "result": "3/15"}, {"measurement": "Changes in positive urinary protein, Weeks of Age 17", "setting": "[1]; [4]", "result": "5/14"}, {"measurement": "Changes in positive urinary protein, Weeks of Age 18", "setting": "[1]; [4]", "result": "9/14"}]}, {"compound": "sulfatide", "values": [{"measurement": "effect of IFN-α on average survival days", "setting": "[2]", "result": "further increased significantly in a dose dependent fashion"}, {"measurement": "Changes in positive urinary protein, Weeks of Age 16", "setting": "[1]; [5]", "result": "2/15"}, {"measurement": "Changes in positive urinary protein, Weeks of Age 17", "setting": "[1]; [5]", "result": "5/15"}, {"measurement": "Changes in positive urinary protein, Weeks of Age 18", "setting": "[1]; [5]", "result": "9/15"}, {"measurement": "Changes in GOT, 12 hrs after Completion of Drug Administration", "setting": "rats of 10 months of age; group c): carbon tetrachloride + indomethacin (5 mg/kg) + sulfatide composition (2 mg/kg as sulfatide, oral)", "result": "469 ± 61.5", "unit": "KARMEN units"}, {"measurement": "Changes in GOT, 12 hrs after Completion of Drug Administration", "setting": "rats of 10 months of age; group d): carbon tetrachloride + tetracycline (10 mg/kg) + sulfatide composition (2 mg/kg as sulfatide, oral)", "result": "439 ± 30.5", "unit": "KARMEN units"}, {"measurement": "Changes in GOT, 12 hrs after Completion of Drug Administration", "setting": "rats of 10 months of age; group e): carbon tetrachloride + sulfatide composition (2 mg/kg as sulfatide, oral)", "result": "128 ± 48.7", "unit": "KARMEN units"}, {"measurement": "average survival days", "setting": "[3]", "result": "significantly effective in dose-dependently prolonging average survival days"}]}, {"compound": "IV³ SO₃ II³ SO₃ Ge4Cer [SB1a]", "values": [{"measurement": "Changes in positive urinary protein, Weeks of Age 16", "setting": "[1]; [5]", "result": "5/15"}, {"measurement": "Changes in positive urinary protein, Weeks of Age 17", "setting": "[1]; [5]", "result": "7/15"}, {"measurement": "Changes in positive urinary protein, Weeks of Age 18", "setting": "[1]; [5]", "result": "10/15"}]}, {"compound": "III³ II³ SO₃ Ge3Cer [SB2]", "values": [{"measurement": "Changes in positive urinary protein, Weeks of Age 16", "setting": "[1]; [5]", "result": "4/15"}, {"measurement": "Changes in positive urinary protein, Weeks of Age 17", "setting": "[1]; [5]", "result": "5/15"}, {"measurement": "Changes in positive urinary protein, Weeks of Age 18", "setting": "[1]; [5]", "result": "10/15"}]}, {"compound": "II³ SO₃ Lac Cer [SM3]", "values": [{"measurement": "Changes in positive urinary protein, Weeks of Age 16", "setting": "[1]; [5]", "result": "2/15"}, {"measurement": "Changes in positive urinary protein, Weeks of Age 17", "setting": "[1]; [5]", "result": "4/15"}, {"measurement": "Changes in positive urinary protein, Weeks of Age 18", "setting": "[1]; [5]", "result": "8/15"}]}, {"compound": "sialyl Lewis X", "values": [{"measurement": "Changes in positive urinary protein, Weeks of Age 16", "setting": "[1]; [4]", "result": "3/15"}, {"measurement": "Changes in positive urinary protein, Weeks of Age 17", "setting": "[1]; [4]", "result": "4/15"}, {"measurement": "Changes in positive urinary protein, Weeks of Age 18", "setting": "[1]; [4]", "result": "8/15"}]}, {"compound": "CCCCCCCCCCCCCCCCOCC(COC1OC(CO)C(O)C(OS(=O)(=O)O)C1O)OC(=O)CCCCCCCCCCCCCCC", "note": "[seminolipid, 3-O-(β-D-Galactopyranosyl 3-sulfate)-2-O-hexadecanoyl-1-O-hexadecyl-L-glycerol]", "values": [{"measurement": "Changes in positive urinary protein, Weeks of Age 16", "setting": "[1]; [5]", "result": "3/15"}, {"measurement": "Changes in positive urinary protein, Weeks of Age 17", "setting": "[1]; [5]", "result": "4/15"}, {"measurement": "Changes in positive urinary protein, Weeks of Age 18", "setting": "[1]; [5]", "result": "8/15"}]}]}
